Test results taken from PubChem BioAssay (NCI).
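Interpolation was linear, between the two tested concentrations surrounding the appropriate level; five concentrations were tested over 48 hours in 96-well plates. GI50: concentration for 50% inhibition of growth. TGI: total growth inhibition.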 Where a SMILES comes first, the peptide text is derived from it. The star is where a group is joined. Boc = CC(C)(C)OC(=O)*; OBn = c1ccc(CO*)cc1

Columns and labels:
Assay in all cases: DTP human tumour cell line panel, 48 h
[1] = tested on: LOX IMVI melanoma
[2] = tested on: SN12C renal
[3] = tested on: HCC-2998 colon
[4] = tested on: UO-31 renal
[5] = tested on: SF-268 CNS
[6] = tested on: OVCAR-5 ovarian
[7] = tested on: SK-OV-3 ovarian
[8] = tested on: HCT-15 colon
[9] = tested on: NCI-H23 lung
[10] = tested on: SK-MEL-5 melanoma

| SMILES | TGI [1] | TGI [2] | TGI [3] | TGI [4] | TGI [5] | TGI [6] | TGI [7] | TGI [8] | TGI [9] | TGI [10] | GI50 [1] | GI50 [2] | GI50 [3] | GI50 [4] | GI50 [5] | GI50 [6] | GI50 [7] | GI50 [8] | GI50 [9] | GI50 [10] |
| --- | --- | --- | --- | --- | --- | --- | --- | --- | --- | --- | --- | --- | --- | --- | --- | --- | --- | --- | --- | --- |
| CC(C)(C)OC[C@H](O)CC#N | > 100 µM | > 100 µM | > 100 µM | > 100 µM | > 100 µM | > 100 µM | > 100 µM | > 100 µM | > 100 µM | > 100 µM | – | – | – | – | – | – | – | – | – | – |
| Cc1ccc(S(=O)(=O)c2c(O)c3ccccc3n(C)c2=O)cc1 | – | > 100 µM | – | > 100 µM | > 100 µM | > 100 µM | > 100 µM | > 100 µM | > 100 µM | > 100 µM | – | – | – | – | – | – | – | – | – | – |
| CSc1cc(N)ccc1N=Nc1ccc(S(N)(=O)=O)cc1 | > 100 µM | > 100 µM | > 100 µM | 56.1 µM | > 100 µM | > 100 µM | > 100 µM | 62.9 µM | > 100 µM | 30.6 µM | – | – | – | – | – | – | – | – | – | – |
| COc1ccc(C(=O)N2c3ccccc3Sc3ccccc32)c(C(F)(F)F)c1 | > 100 µM | > 100 µM | 32 µM | > 100 µM | > 100 µM | > 100 µM | > 100 µM | > 100 µM | > 100 µM | 16.6 µM | 0.516 µM | 1.3 µM | 0.467 µM | 2.62 µM | 3.04 µM | 1.61 µM | 0.794 µM | 0.405 µM | 0.578 µM | 0.692 µM |
| O=C1/C(=C2\Sc3c(ccc(Cl)c3Cl)C2=O)Sc2c1ccc(Cl)c2Cl | – | > 100 µM | > 100 µM | > 100 µM | > 100 µM | > 100 µM | – | > 100 µM | > 100 µM | > 100 µM | – | – | – | – | – | – | – | – | – | – |
| COc1ccc2c(c1)/c(=C/c1ccc(N(C)C)cc1)c1cc(-c3ccccc3)[n+](C)n12 | 1.51 µM | 1.24 µM | – | 3.28 µM | 1.1 µM | 3.17 µM | 1.98 µM | 4.02 µM | – | 1.06 µM | – | – | – | – | – | – | – | – | – | – |
| CN(Cc1cnc2nc(N)nc(N)c2n1)c1ccc(C(=O)NC(CCC(=O)NC(P(=O)(O)O)P(=O)(O)O)C(=O)O)cc1 (stereo unspecified) | > 100 µM | > 100 µM | – | > 100 µM | > 100 µM | > 100 µM | – | > 100 µM | > 100 µM | > 100 µM | – | – | – | – | – | – | – | – | – | – |
| CC1(Cl)CC2C(CC1Sc1nnnn1-c1ccccc1)C2(C)C (stereo unspecified) | > 100 µM | > 100 µM | > 100 µM | > 100 µM | > 100 µM | > 100 µM | – | > 100 µM | > 100 µM | > 100 µM | – | – | – | – | – | – | – | – | – | – |
| c1ccc2c(Cc3nnc4sc(SSc5nn6c(Cc7c[nH]c8ccccc78)nnc6s5)nn34)c[nH]c2c1 | – | 56.3 µM | 30.4 µM | 46.7 µM | 67.2 µM | 53.1 µM | > 100 µM | 53.6 µM | 34.7 µM | 24.2 µM | – | – | – | – | – | – | – | – | – | – |
| Cc1ccc(-c2n[nH]c(=O)[nH]2)cc1[N+](=O)[O-] | > 100 µM | > 100 µM | > 100 µM | > 100 µM | > 100 µM | > 100 µM | – | > 100 µM | > 100 µM | > 100 µM | – | – | – | – | – | – | – | – | – | – |
| CC1(C)Oc2ccc(NC(=O)CCC(N)C(=O)O)cc2O1 (stereo unspecified) | > 100 µM | > 100 µM | > 100 µM | > 100 µM | – | > 100 µM | > 100 µM | > 100 µM | > 100 µM | > 100 µM | – | – | – | – | – | – | – | – | – | – |
| CC(C)(C)OC(=O)NC(Cc1ccccc1)C(=O)NC(Cc1ccccc1)C(=O)NCC(=O)OCc1ccccc1 (stereo not drawn) (Boc-Phe-Phe-Gly-OBn; configuration not given here) | 24.5 µM | 85.9 µM | 29.8 µM | > 100 µM | 29.4 µM | > 100 µM | 46 µM | 64.7 µM | 80.7 µM | – | – | – | – | – | – | – | – | – | – | – |
| C[C@]12CC[C@H](O)CC1=CC[C@@H]1[C@@H]2CC[C@]2(C)/C(=N/OCCN3CCCC3)CC[C@@H]12 | 33.4 µM | 93.6 µM | 37.1 µM | 35.3 µM | > 100 µM | 96.6 µM | – | 28.8 µM | 27.1 µM | 28 µM | – | – | – | – | – | – | – | – | – | – |
| CCOc1cc(C2CC(c3ccc(NS(=O)(=O)c4cc([N+](=O)[O-])ccc4C)cc3)=NN2)ccc1O (stereo unspecified) | 53 µM | 65.2 µM | – | 84 µM | > 100 µM | > 100 µM | – | 67.3 µM | 80.7 µM | 37.8 µM | – | – | – | – | – | – | – | – | – | – |
| NCCCCNCCCNC(=O)c1nc(-c2csc(CCN)n2)sc1Cl | – | > 100 µM | > 100 µM | > 100 µM | > 100 µM | > 100 µM | > 100 µM | > 100 µM | > 100 µM | > 100 µM | – | – | – | – | – | – | – | – | – | – |
| COc1cccc(-c2cc(=O)c3ccc(C)nc3[nH]2)c1 | > 100 µM | > 100 µM | 2.12 µM | > 100 µM | > 89.7 µM | > 100 µM | > 60.6 µM | – | > 100 µM | 2.47 µM | – | – | – | – | – | – | – | – | – | – |
| C/C(O)=C/c1nc2ccc([N+](=O)[O-])cc2nc1/C=C(/C)O | > 100 µM | > 100 µM | – | > 100 µM | > 100 µM | > 100 µM | > 100 µM | > 100 µM | > 100 µM | > 100 µM | – | – | – | – | – | – | – | – | – | – |
| O=S1(=O)c2ccccc2NC(=S)CC1c1ccccc1 (stereo unspecified) | > 100 µM | > 100 µM | – | > 100 µM | > 100 µM | > 100 µM | > 100 µM | > 100 µM | > 100 µM | > 100 µM | – | – | – | – | – | – | – | – | – | – |
| CCc1ccc2c(c1)CC1(C2)Cc2cc3c(cc2C1)C(=O)CC3 (stereo unspecified) | 37 µM | 89.6 µM | 47.1 µM | 92.9 µM | – | > 100 µM | > 100 µM | 67.3 µM | 96.6 µM | 16.9 µM | – | – | – | – | – | – | – | – | – | – |
| Cn1c2ccccc2c2c3c(c4c5ccccc5n(C)c4c21)C(=O)c1ccccc1C3=O | > 100 µM | > 100 µM | > 100 µM | > 100 µM | – | > 100 µM | > 100 µM | > 100 µM | 63.5 µM | > 100 µM | – | – | – | – | – | – | – | – | – | – |
| COc1cc(/C=C2/N=C(c3ccccc3)N(C3=NNC4(C(=O)N3)c3ccccc3-c3ccccc34)NC2=O)ccc1O | 66.8 mg/L | 56.8 mg/L | – | 111 mg/L | 66.7 mg/L | > 150 mg/L | 37.8 mg/L | > 150 mg/L | 15 mg/L | 39.6 mg/L | 32.3 mg/L | 25.6 mg/L | – | 33.4 mg/L | 27.5 mg/L | 44.6 mg/L | 19 mg/L | 46.7 mg/L | 15 mg/L | 20.3 mg/L |
